Experiment: xn = mol fraction of the nth substance listed
Details: 101 kPa, Liquid; for viscosity: Capillary tube (Ostwald / Ubbelohde) method; for mass density: Vibrating tube method

CC(C)CO [2-methyl-1-propanol] + CC(C)O
Details | mass density, 293.15 K [kg/m3] | mass density, 303.15 K [kg/m3] | mass density, 313.15 K [kg/m3] | mass density, 323.15 K [kg/m3] | mass density, 333.15 K [kg/m3] | viscosity, 293.15 K [mPa·s] | viscosity, 303.15 K [mPa·s] | viscosity, 313.15 K [mPa·s] | viscosity, 323.15 K [mPa·s] | viscosity, 333.15 K [mPa·s]
x1 = 0.1495 | 788.29 | 779.93 | 771.29 | 762.29 | 752.87 | 2.45 | 1.817 | 1.259 | 0.983 | 0.648
x1 = 0.2001 | 789.25 | 780.93 | 772.34 | 763.4 | 754.05 | 2.498 | 1.839 | 1.28 | 0.999 | 0.663
x1 = 0.3 | 791.09 | 782.85 | 774.35 | 765.53 | 756.31 | 2.621 | 1.907 | 1.331 | 1.035 | 0.696
x1 = 0.4249 | 793.26 | 785.12 | 776.74 | 768.04 | 758.97 | 2.81 | 2.021 | 1.418 | 1.095 | 0.745
x1 = 0.5189 | 794.8 | 786.73 | 778.43 | 769.83 | 760.87 | 2.976 | 2.131 | 1.505 | 1.158 | 0.794
x1 = 0.6202 | 796.38 | 788.38 | 780.17 | 771.67 | 762.82 | 3.184 | 2.271 | 1.617 | 1.237 | 0.857
x1 = 0.7166 | 797.83 | 789.9 | 781.76 | 773.35 | 764.6 | 3.395 | 2.417 | 1.732 | 1.32 | 0.921
x1 = 0.8005 | 799.06 | 791.18 | 783.1 | 774.76 | 766.09 | 3.594 | 2.547 | 1.837 | 1.394 | 0.979
x1 = 0.9001 | 800.47 | 792.65 | 784.64 | 776.38 | 767.81 | 3.838 | 2.709 | 1.963 | 1.483 | 1.051

CC(C)CO [2-methyl-1-propanol] + CCCO
Details | mass density, 293.15 K [kg/m3] | mass density, 303.15 K [kg/m3] | mass density, 313.15 K [kg/m3] | mass density, 323.15 K [kg/m3] | mass density, 333.15 K [kg/m3] | viscosity, 293.15 K [mPa·s] | viscosity, 303.15 K [mPa·s] | viscosity, 313.15 K [mPa·s] | viscosity, 323.15 K [mPa·s] | viscosity, 333.15 K [mPa·s]
x1 = 0.1038 | 803.39 | 795.39 | 787.25 | 778.91 | 770.34 | 2.147 | 1.586 | 1.079 | 0.835 | 0.508
x1 = 0.1962 | 803.24 | 795.27 | 787.16 | 778.85 | 770.31 | 2.269 | 1.657 | 1.14 | 0.88 | 0.545
x1 = 0.2944 | 803.09 | 795.15 | 787.07 | 778.79 | 770.27 | 2.413 | 1.744 | 1.21 | 0.93 | 0.588
x1 = 0.4058 | 802.91 | 795.01 | 786.96 | 778.71 | 770.2 | 2.594 | 1.855 | 1.297 | 0.991 | 0.641
x1 = 0.504 | 802.75 | 794.88 | 786.86 | 778.62 | 770.13 | 2.768 | 1.967 | 1.382 | 1.052 | 0.693
x1 = 0.6041 | 802.58 | 794.74 | 786.74 | 778.52 | 770.04 | 2.961 | 2.099 | 1.487 | 1.126 | 0.753
x1 = 0.7019 | 802.41 | 794.59 | 786.61 | 778.41 | 769.94 | 3.172 | 2.253 | 1.611 | 1.217 | 0.83
x1 = 0.8072 | 802.21 | 794.41 | 786.45 | 778.26 | 769.8 | 3.452 | 2.448 | 1.767 | 1.335 | 0.928
x1 = 0.8996 | – | 794.24 | 786.29 | 778.11 | 769.64 | – | 2.643 | 1.914 | 1.446 | 1.018

NCCCO [3-amino-1-propanol] + CCCO
Details | mass density, 293.15 K [kg/m3] | mass density, 303.15 K [kg/m3] | mass density, 313.15 K [kg/m3] | mass density, 323.15 K [kg/m3] | mass density, 333.15 K [kg/m3] | viscosity, 293.15 K [mPa·s] | viscosity, 303.15 K [mPa·s] | viscosity, 313.15 K [mPa·s] | viscosity, 323.15 K [mPa·s] | viscosity, 333.15 K [mPa·s]
x1 = 0.1088 | 826.73 | 818.68 | 810.49 | 802.16 | 793.63 | 2.978 | 2.081 | 1.401 | 0.999 | 0.579
x1 = 0.2019 | 845.91 | 837.85 | 829.65 | 821.33 | 812.86 | 4.164 | 2.839 | 2.061 | 1.474 | –
x1 = 0.2993 | 865.53 | 857.43 | 849.23 | 840.93 | 832.49 | 5.873 | 3.89 | 2.864 | 2.11 | 1.266
x1 = 0.4099 | 886.82 | 878.7 | 870.51 | 862.22 | 853.84 | 8.435 | 5.443 | 3.97 | 2.95 | 1.828
x1 = 0.5002 | 903.78 | 895.67 | 887.49 | 879.21 | 870.85 | 11.26 | 7.04 | 5.05 | 3.657 | 2.352
x1 = 0.6014 | 922.34 | 914.25 | 906.08 | 897.8 | 889.48 | 15.35 | 9.477 | 6.59 | 4.685 | 3.105
x1 = 0.6995 | 939.59 | 931.51 | 923.4 | 915.21 | 907.01 | 20.08 | 12.29 | 8.276 | 5.816 | 3.907
x1 = 0.8091 | 958.11 | 950.09 | 942.03 | 933.93 | 925.77 | 26.44 | 15.93 | 10.5 | 7.232 | 4.917
x1 = 0.9003 | 972.64 | 964.64 | 956.59 | 948.49 | 940.36 | 32.71 | 19.52 | 12.63 | 8.57 | 5.829
